Assay results: US6653258B1 (priority 1987, dated 2003)
Read-outs that look alike come from different tables or passages of the source. Marks after values point to notes of the source that are not given here.

Tests used:
[1] = test system: foliar fungal diseases of plants; type: in vivo; set-up: key to disease control grading, […] (VINE): 4: no disease; 3: trace −5% of disease on untreated plants; key to disease control grading, PUCCINIA RECONDITA (WHEAT) / disease control grading, VENTURIA INAEQUALIS (APPLE) / disease control grading, CERCOSPORA ARACHIDICOLA (PEANUT) / disease control grading, PH[…] (TOMATO) / disease control grading, P[…] (RICE): 4: no disease; 3: trace −5% of disease on untreated plants; 6-25% of disease on untreated plants; 1: 26-59% of disease on untreated plants; 60-100% of disease on untreated plants; conditions: for disease control grading, CERCOSPORA ARACHIDICOLA (PEANUT): Cercospora arachidicola on peanut; for disease control grading, P[…] (RICE): P[…] on rice; for disease control grading, PH[…] (TOMATO): Ph[…] on tomato; for disease control grading, PUCCINIA RECONDITA (WHEAT): Puccinia recondita on wheat; for disease control grading, VENTURIA INAEQUALIS (APPLE): Venturia inaequalis on apple; for disease control grading, […] (VINE): […] on vine
Erysiphe graminis = assay: Foliar fungal disease test on Erysiphe graminis, plants inoculated 24 hours before treatment (Table V); type: in vivo; set-up: key: 4: no disease; 3: trace −5% of disease on untreated plants; 6-25% of disease on untreated plants; 1: 26-59% of disease on untreated plants; 60-100% of disease on untreated plants
[2] = applied to soil (roots) and foliage one or two days before inoculation
[3] = plants inoculated 24 hours before treatment

CO/C=C(/C(=O)OC)c1ccccc1COc1cccc(CO)c1 [178 (Table I)]
disease control grading, CERCOSPORA ARACHIDICOLA (PEANUT) [1, 2]: 3 (trace −5% of disease on untreated plants)
disease control grading, P[…] (RICE) [1, 2]: 2 (6-25% of disease on untreated plants)
disease control grading, PH[…] (TOMATO) [1, 2]: 2 (6-25% of disease on untreated plants)
disease control grading, PUCCINIA RECONDITA (WHEAT) [1, 2]: 3 (trace −5% of disease on untreated plants)
disease control grading, VENTURIA INAEQUALIS (APPLE) [1, 2]: 0 (60-100% of disease on untreated plants)
disease control grading, […] (VINE) [1, 2]: 4
disease control grading, ERYSIPHE GRAMINIS (BARLEY) (Erysiphe graminis; [3]): 0 (60-100% of disease on untreated plants)

CO/C=C(/C(=O)OC)c1ccccc1COc1cccc(Oc2ccccc2)c1 [165 (Table I)]
disease control grading, CERCOSPORA ARACHIDICOLA (PEANUT) [1, 2]: 0 (60-100% of disease on untreated plants)
disease control grading, P[…] (RICE) [1, 2]: 4
disease control grading, PH[…] (TOMATO) [1, 2]: 4
disease control grading, PUCCINIA RECONDITA (WHEAT) [1, 2]: 4
disease control grading, VENTURIA INAEQUALIS (APPLE) [1, 2]: 0 (60-100% of disease on untreated plants)
disease control grading, […] (VINE) [1, 2]: 4
disease control grading, ERYSIPHE GRAMINIS (BARLEY) (Erysiphe graminis; [3]): 4

CCc1ccccc1OCc1ccccc1/C(=C\OC)C(=O)OC [27 (Table I)]
disease control grading, CERCOSPORA ARACHIDICOLA (PEANUT) [1, 2]: 4
disease control grading, P[…] (RICE) [1, 2]: 1 (26-59% of disease on untreated plants)
disease control grading, PH[…] (TOMATO) [1, 2]: 4
disease control grading, PUCCINIA RECONDITA (WHEAT) [1, 2]: 4
disease control grading, VENTURIA INAEQUALIS (APPLE) [1, 2]: 4
disease control grading, […] (VINE) [1, 2]: 0 (60-100% of disease on untreated plants)
disease control grading, ERYSIPHE GRAMINIS (BARLEY) (Erysiphe graminis; [3]): 4

CCN(CC)c1cccc(OCc2ccccc2/C(=C\OC)C(=O)OC)c1 [169 (Table I)]
disease control grading, CERCOSPORA ARACHIDICOLA (PEANUT) [1, 2]: 4
disease control grading, P[…] (RICE) [1, 2]: 0 (60-100% of disease on untreated plants)
disease control grading, PH[…] (TOMATO) [1, 2]: 4
disease control grading, PUCCINIA RECONDITA (WHEAT) [1, 2]: 3 (trace −5% of disease on untreated plants)
disease control grading, VENTURIA INAEQUALIS (APPLE) [1, 2]: 4
disease control grading, […] (VINE) [1, 2]: 4
disease control grading, ERYSIPHE GRAMINIS (BARLEY) (Erysiphe graminis; [3]): 1 (26-59% of disease on untreated plants)

CO/C=C(/C(=O)OC)c1ccccc1COc1cccc(Br)c1 [166 (Table I)]
disease control grading, CERCOSPORA ARACHIDICOLA (PEANUT) [1, 2]: 4
disease control grading, P[…] (RICE) [1, 2]: 4
disease control grading, PH[…] (TOMATO) [1, 2]: 4
disease control grading, PUCCINIA RECONDITA (WHEAT) [1, 2]: 4
disease control grading, VENTURIA INAEQUALIS (APPLE) [1, 2]: 4
disease control grading, […] (VINE) [1, 2]: 4
disease control grading, ERYSIPHE GRAMINIS (BARLEY) (Erysiphe graminis; [3]): 4

CCCN(Cc1ccccc1/C(=C\OC)C(=O)OC)c1ccccc1 [4 (Table III)]
disease control grading, CERCOSPORA ARACHIDICOLA (PEANUT) ([1]; 25 ppm foliar spray only): 0* (60-100% of disease on untreated plants)
disease control grading, P[…] (RICE) ([1]; 25 ppm foliar spray only): 0* (60-100% of disease on untreated plants)
disease control grading, PH[…] (TOMATO) ([1]; 25 ppm foliar spray only): 0* (60-100% of disease on untreated plants)
disease control grading, PUCCINIA RECONDITA (WHEAT) ([1]; 25 ppm foliar spray only): 0* (60-100% of disease on untreated plants)
disease control grading, VENTURIA INAEQUALIS (APPLE) ([1]; 25 ppm foliar spray only): 3* (trace −5% of disease on untreated plants)
disease control grading, […] (VINE) ([1]; 25 ppm foliar spray only): 1* (26-59% of disease on untreated plants)
disease control grading, ERYSIPHE GRAMINIS (BARLEY) (Erysiphe graminis; 25 ppm foliar spray only): 0* (60-100% of disease on untreated plants)

COC=C(C(=O)OC)c1ccccc1C(C)Sc1ccccc1 (stereo not drawn) [2 (Table II)]
disease control grading, CERCOSPORA ARACHIDICOLA (PEANUT) [1, 2]: 0 (60-100% of disease on untreated plants)
disease control grading, P[…] (RICE) [1, 2]: 4
disease control grading, PH[…] (TOMATO) [1, 2]: 4
disease control grading, PUCCINIA RECONDITA (WHEAT) [1, 2]: 4
disease control grading, VENTURIA INAEQUALIS (APPLE) [1, 2]: 4
disease control grading, […] (VINE) [1, 2]: 4
disease control grading, ERYSIPHE GRAMINIS (BARLEY) (Erysiphe graminis; [3]): 4

CO/C=C(/C(=O)OC)c1ccccc1COc1ccc(F)cc1 [156 (Table I)]
disease control grading, CERCOSPORA ARACHIDICOLA (PEANUT) [1, 2]: 4
disease control grading, P[…] (RICE) [1, 2]: 0 (60-100% of disease on untreated plants)
disease control grading, PH[…] (TOMATO) [1, 2]: 4
disease control grading, PUCCINIA RECONDITA (WHEAT) [1, 2]: 4
disease control grading, VENTURIA INAEQUALIS (APPLE) [1, 2]: 4
disease control grading, […] (VINE) [1, 2]: 4
disease control grading, ERYSIPHE GRAMINIS (BARLEY) (Erysiphe graminis; [3]): 4

CO/C=C(/C(=O)OC)c1ccccc1COc1cccc(OC)c1 [160 (Table I)]
disease control grading, CERCOSPORA ARACHIDICOLA (PEANUT) [1, 2]: 3 (trace −5% of disease on untreated plants)
disease control grading, P[…] (RICE) [1, 2]: 3 (trace −5% of disease on untreated plants)
disease control grading, PH[…] (TOMATO) [1, 2]: 4
disease control grading, PUCCINIA RECONDITA (WHEAT) [1, 2]: 4
disease control grading, VENTURIA INAEQUALIS (APPLE) [1, 2]: 4
disease control grading, […] (VINE) [1, 2]: 4
disease control grading, ERYSIPHE GRAMINIS (BARLEY) (Erysiphe graminis; [3]): 4

CO/C=C(/C(=O)OC)c1ccccc1COc1cccc(C(F)(F)F)n1 [177 (Table I)]
disease control grading, P[…] (RICE) [1, 2]: 4
disease control grading, PH[…] (TOMATO) [1, 2]: 4
disease control grading, PUCCINIA RECONDITA (WHEAT) [1, 2]: 4
disease control grading, VENTURIA INAEQUALIS (APPLE) [1, 2]: 4
disease control grading, […] (VINE) [1, 2]: 4
disease control grading, ERYSIPHE GRAMINIS (BARLEY) (Erysiphe graminis; [3]): 4
